In patent US8012987B2, “Indolo[2,1-b] quinazole-6,12-dione antimalarial compounds and methods of treating malaria therewith” (The United States of America as represented by the …, priority 1998, dated 2011):
In brackets after ≈: the same amount, converted by molar mass. Several values for one entry are separate records, joined by “and”; a condition that tells them apart may be missing. Equal values may be shown once. Read-outs that look alike come from different tables or passages of the source.

What was measured:
Type in all cases: cell-based
[1] = system: Plasmodium falciparum clone CDC Sierra Leone I (D-6); test: In vitro inhibition of [3H]hypoxanthine uptake, P. falciparum D-6 clone; conditions: for IC50: Plasmodium falciparum, read-out: IC50 (D-6)
Method: (§1) The in vitro assays were conducted by using a modification of the semiautomated microdilution technique of Desjardins et al.^11 and Chulay et al.^12 Two strains of Plasmodium falciparum clones, from CDC Indochina III (W-2), CDC Sierra Leone I (D-6). […] These solutions were subsequently serially diluted 2-fold with a Biomek 1000® (Beckman, Fullerton, Calif.) over 11 different concentrations. The parasites were exposed to serial dilutions of each compound for 48 h and incubated at 37° C. with 5% O2, 5% CO2, and 90% N2 prior to the addition of [^3H]hypoxanthine. […] Uptake of [^3H]hypoxanthine was measured with a Packard Topcount scintillation counter. […] The values without parentheses indicate culture in blood serum which more closely resemble conditions in a living animal.
(§2) The numbers associated with both W2 and D6 refer to IC50 values and the units are ng/ml.

[2] = system: Plasmodium falciparum clone Thai WR75-TM9; test: In vitro inhibition of [3H]hypoxanthine uptake, P. falciparum WR75-TM9; conditions: values without parentheses: blood serum (footnote: blood plasma) replacing Albumax; for IC50: Plasmodium falciparum
Method: (§3) The in vitro assays were conducted by using a modification of the semiautomated microdilution technique of Desjardins et al.^11 and Chulay et al.^12 Two strains of Plasmodium falciparum clones, from CDC Indochina III (W-2), CDC Sierra Leone I (D-6). […] They were derived by direct visualization and micromanipulation from patient isolates.^13 Test compounds were initially dissolved in DMSO and diluted 400-fold in RPMI 1640 culture medium supplemented with 25 mM Hepes, 32 mM HaHCO3, and 10% Albumax I® (GIBCO BRL, Grand Island, N.Y.). These solutions were subsequently serially diluted 2-fold with a Biomek 1000® (Beckman, Fullerton, Calif.) over 11 different concentrations. The parasites were exposed to serial dilutions of each compound for 48 h and incubated at 37° C. with 5% O2, 5% CO2, and 90% N2 prior to the addition of [^3H]hypoxanthine. After a further incubation of 18 h, parasite DNA was harvested from each microtiter well using Packard Filtermate 196 Harvester® (Meriden, Conn.) onto glass filters. Uptake of [^3H]hypoxanthine was measured with a Packard Topcount scintillation counter. […] This procedure was repeated with the test compounds initially dissolved in DMSO and diluted 400-fold in RPMI 1640 culture medium supplemented with 25 mM Hepes, 32 mM HaHCO3, and with blood serum replacing the 10% Albumax I® (see Table 1, figures without parentheses). The values without parentheses indicate culture in blood serum which more closely resemble conditions in a living animal.
(§4) Four strains of Plasmodium falciparum clones, from CDC Indochina III (W-2), CDC Sierra Leone I (D-6), Thai WR75-TM9, and Thai TM90C2B were utilized in susceptibility testing and the IC50 results appear in Table 1.

[3] = system: Plasmodium falciparum clone CDC Indochina III (W-2); test: In vitro inhibition of [3H]hypoxanthine uptake, P. falciparum W-2 clone; conditions: for IC50: Plasmodium falciparum, read-out: IC50 (W-2)
Method: as §1, §2

[4] = system: Plasmodium falciparum clone Thai TM90C2B; test: In vitro inhibition of [3H]hypoxanthine uptake, P. falciparum TM90C2B; conditions: values without parentheses: blood serum (footnote: blood plasma) replacing Albumax; for IC50: Plasmodium falciparum, TM90C2B
Method: as §3, §4

[5] = system: Plasmodium falciparum; test: In vitro antimalarial activity against Plasmodium falciparum (strain not given); conditions: judged from the IC50 values of Table 1
Method: as §3, §4

[6] = values in parentheses: culture medium with 10% Albumax I
[7] = values without parentheses: blood serum (footnote: blood plasma) replacing Albumax

Structure (SMILES)	IC50 [1, 6]	IC50 [1, 7]	IC50 (D-6) [1, 7]	IC50 (WR75-TM9) [2]	IC50 [3, 6]	IC50 [3, 7]	IC50 (W-2) [3, 7]	IC50 [4]	IC50 (TM90C2B) [4]	IC50 [2]	effectiveness in treating/reducing malaria parasites as shown in Table 1 [5]
O=C1c2cc(F)ccc2-n2c1nc1ccccc1c2=O [Example 91]	0.24 ng/mL (≈ 0.000901 µM)	9.06 ng/mL (≈ 0.034 µM)	10.137 ng/mL (≈ 0.0381 µM)	9.941 ng/mL (≈ 0.0373 µM)	1.8 ng/mL (≈ 0.00676 µM)	5.52 ng/mL (≈ 0.0207 µM)	4.977 ng/mL (≈ 0.0187 µM)				
O=C1c2cc(F)ccc2-n2c1nc1cc(F)ccc1c2=O [Example 12]	4.9 ng/mL (≈ 0.0172 µM)	8.54 ng/mL (≈ 0.03 µM)	14.239 ng/mL and 11.005 ng/mL	16.249 ng/mL and 19.374 ng/mL	1.6 ng/mL (≈ 0.00563 µM)	5.27 ng/mL (≈ 0.0186 µM)	5.787 ng/mL and 6.539 ng/mL	9.74 ng/mL (≈ 0.0343 µM)	16.914 ng/mL and 11.113 ng/mL	12 ng/mL (≈ 0.042 µM)	
O=C1c2cc(F)ccc2N2C(=O)c3ccccc3NC12 (stereo not drawn) [Example 4]	4.07 ng/mL (≈ 0.0152 µM)	18.9 ng/mL (≈ 0.0704 µM)			2.33 ng/mL (≈ 0.00869 µM)	15.3 ng/mL (≈ 0.0572 µM)		29.8 ng/mL (≈ 0.111 µM)			
COC(OC)c1ccc2c(c1)C(=O)c1nc3ccncc3c(=O)n1-2 [Example 70]	13.2 ng/mL (≈ 0.0409 µM)				8.69 ng/mL (≈ 0.0269 µM)	6.1 ng/mL (≈ 0.0189 µM)		11 ng/mL (≈ 0.034 µM)		24.4 ng/mL (≈ 0.0754 µM)	
O=C1c2cc(OC(F)(F)F)ccc2-n2c1nc1cc(SCCO)ccc1c2=O [Example 87]	4.92 ng/mL (≈ 0.012 µM)				3.51 ng/mL (≈ 0.0086 µM)			0.696 ng/mL (≈ 0.0017 µM)		4.44 ng/mL (≈ 0.0109 µM)	
CN(CCO)c1ccc2c(=O)n3c(nc2c1)C(=O)c1cc(F)ccc1-3 [Example 68]	7.86 ng/mL (≈ 0.0232 µM)				3.86 ng/mL (≈ 0.0114 µM)			3.73 ng/mL (≈ 0.011 µM)		5.47 ng/mL (≈ 0.0161 µM)	
O=C1c2cc(Cl)ccc2-n2c1nc1ncccc1c2=O [Example 21]	0.93 ng/mL (≈ 0.00328 µM)	0.926 ng/mL (≈ 0.00326 µM)			0.43 ng/mL (≈ 0.00152 µM)	1.28 ng/mL (≈ 0.00451 µM)		2.3 ng/mL (≈ 0.00811 µM)			most effective
CN1CCN(c2ccc3c(=O)n4c(nc3c2)C(=O)c2cc(Cl)ccc2-4)CC1 [Example 58]	4.52 ng/mL (≈ 0.0119 µM)				2.73 ng/mL (≈ 0.00717 µM)			8.1 ng/mL (≈ 0.0213 µM)		17.3 ng/mL (≈ 0.0454 µM)	
O=C1c2cc(Cl)ccc2-n2c1nc1cc(F)ccc1c2=O [Example 45]	1.28 ng/mL (≈ 0.00426 µM)				0.728 ng/mL (≈ 0.00242 µM)					14.2 ng/mL (≈ 0.0471 µM)	
O=C1c2cc(OC(F)(F)F)ccc2-n2c1nc1cc(F)ccc1c2=O [Example 78]	0.93 ng/mL (≈ 0.00266 µM)	1.97 ng/mL (≈ 0.00561 µM)			0.86 ng/mL (≈ 0.00246 µM)	0.935 ng/mL (≈ 0.00267 µM)		1.76 ng/mL (≈ 0.00504 µM)		3.3 ng/mL (≈ 0.00941 µM)	most effective
CCc1ccc2c(c1)C(=O)c1nc3ccncc3c(=O)n1-2 [Example 83]	3.11 ng/mL (≈ 0.0112 µM)	15.1 ng/mL (≈ 0.0546 µM)			1.8 ng/mL (≈ 0.00649 µM)	7.19 ng/mL (≈ 0.0259 µM)		12.9 ng/mL (≈ 0.0464 µM)		25.7 ng/mL (≈ 0.0927 µM)	
O=C1c2cc(Cl)ccc2-n2c1nc1cc(SCCO)ccc1c2=O [Example 86]	3.6 ng/mL (≈ 0.01 µM)	3.63 ng/mL (≈ 0.0101 µM)			2.3 ng/mL (≈ 0.00641 µM)	1.91 ng/mL (≈ 0.00532 µM)		2.08 ng/mL (≈ 0.00579 µM)			
O=C1c2cc(C3CCCCC3)ccc2-n2c1nc1ccncc1c2=O [Example 74]	2.19 ng/mL (≈ 0.00661 µM)	79.6 ng/mL (≈ 0.24 µM)			3.52 ng/mL (≈ 0.0106 µM)	59.8 ng/mL (≈ 0.181 µM)		42.5 ng/mL (≈ 0.128 µM)		127 ng/mL (≈ 0.384 µM)	
